In assay [1] the test system is human neonatal dermal fibroblasts. Put plainly: Type I collagen production: PIP (C-terminal peptide of type I procollagen) in culture supernatant by EIA. The assay is classed as cell-based. Conditions: for effect on promoting type I collagen production compared to the negative control (Bonferroni/Dunn test): under every concentration condition. On the procedure: (§1) Commercially available human neonatal dermal fibroblasts (Cryo NHDF-Neo, manufactured by Sanko Junyaku Co., Ltd.) were used. The cells were inoculated in a commercially available 24-well plate to have 2×10^5 cells per well. The cells were then cultured for four hours in a commercially available medium for cell culture (D-MEM (1 g/L glucose), manufactured by Wako Pure Chemical Industries, Ltd.) to which 10% bovine fetal serum was supplemented (herein below, referred to as a “standard medium”) in a 5% CO2 and saturated water vapor atmosphere at 37° C. (degrees Celsius).
(§2) Subsequently, the medium was switched to a commercially available medium for cell culture (D-MEM (1 g/L glucose), manufactured by Wako Pure Chemical Industries, Ltd.) supplemented with 0.5% bovine fetal serum (herein below, referred to as “low-serum medium”) and cultured for approximately one day in a 5% CO2 and saturated water vapor atmosphere at 37° C. (degrees Celsius). D-aspartic acid (manufactured by Wako Pure Chemical Industries, Ltd., 018-04821) was added to the low-serum medium to have the concentration of 0.01 μM (micro-molar), 0.1 μM (micro-molar), […] μM (micro-molar), or 320 μM (micro-molar). As a positive control, magnesium L-ascorbyl phosphate (L-Ascorbic Acid Phosphate Magnesium Salt n-Hydrate, herein below, referred to as “APM”, manufactured by Wako Pure Chemical Industries, Ltd., 013-19641) was added to the low-serum medium to have the concentration of 150 μM (micro-molar), 250 μM (micro-molar), or 500 μM (micro-molar). Further, the low-serum medium described above to which neither APM nor D-aspartic acid had been added was employed as a negative control.
After completing the cell culture for two days, the culture supernatant was collected and the concentration of C-terminal peptide of type I procollagen (herein below, referred to as “PIP”) produced by human neonatal dermal fibroblasts was measured by using Procollagen type I C-peptide EIA kit (manufactured by Takara Bio Inc.) according to the manufacturer's instruction.
The cell culture, addition of amino acids, and quantification of production amount of type I collagen were carried out in the same manner as the Example 1. As an amino acid, D-alanine (manufactured by Peptide Institute, Inc., 2801) was used at the concentrations of 0.01 μM (micro-molar), 0.1 μM (micro-molar), 10 μM (micro-molar), 1000 μM (micro-molar), and 17400 μM (micro-molar). Further, the low-serum medium described above to which neither APM nor D-alanine had been added was employed as a negative control.
The cell culture, addition of amino acids, and quantification of production amount of type I collagen were carried out in the same manner as the Example 1. D-Aspartic acid (manufactured by Wako Pure Chemical Industries, Ltd., 018-04821) of 0.1 μM (micro-molar) and L-aspartic acid (manufactured by Wako Pure Chemical Industries, Ltd., 013-04832) of 0.1 μM (micro-molar) were used as amino acids. Further, the low-serum medium described above to which neither L-aspartic acid nor D-aspartic acid had been added was employed as a negative control.
The cell culture, addition of amino acids, and quantification of production amount of type I collagen were carried out in the same manner as the Example 1. D-Alanine (manufactured by Peptide Institute, Inc., 2801) of 0.1 μM (micro-molar) or 150 μM (micro-molar) and L-alanine (manufactured by Peptide Institute, Inc., 2701) of 0.1 μM (micro-molar) or 150 μM (micro-molar) were used as amino acids. Further, the low-serum medium described above to which neither L-alanine nor D-alanine had been added was employed as a negative control.

Assay [2] has the same test system. As to the kind of experiment: Type I atelocollagen production after pepsin treatment, by type I human collagen ELISA. Conditions: for promotion of type I collagen production compared to the negative control (Bonferroni/Dunn test): 0.1 μM, atelocollagen ELISA. It counts as cell-based. As for the experimental part: as §1, §2
The cell culture and addition of amino acids were carried out in the same manner as the Example 1. D-Aspartic acid (manufactured by Wako Pure Chemical Industries, Ltd., 018-04821) of 0.1 μM (micro-molar) and D-alanine (manufactured by Peptide Institute, Inc., 2801) of 0.1 μM (micro-molar) or 0.001 μM (micro-molar) were used as amino acids. Further, the low-serum medium described above to which neither D-aspartic acid nor D-alanine had been added was employed as a negative control. As a positive control, APM was added to the low-serum medium described above to have the concentration of 250 μM (micro-molar). In order to evaluate the production amount of type I collagen, type I procollagen and tropocollagen produced by human neonatal dermal fibroblasts were treated with pepsin (800 to 2500 unit/mg, P7000, manufactured by SIGMA), and the concentration of type I atelocollagen was measured by type I human collagen ELISA (EC1-E105, manufactured by AC Biotechnologies) according to the manufacturer's instruction.

[3] abbreviates: Example 4, added at 0.1 μM, negative control 361 ng/mL.
Setting [4] is: Example 4, added at 150 μM, negative control 361 ng/mL.
The mark [5] stands for this setting: Example 5 results (1), added at 0.1 μM, negative control 1.8 μg/mL.
The mark [6] stands for this setting: Example 3, added at 0.1 μM, negative control 361 ng/mL.

The text below walks through data of US8637572B2, “Composition for promoting collagen production” (Shiseido Company, Ltd., priority 2009, dated 2014).

Regarding `C[C@H](N)C(=O)O` [L-alanine, reference compound], the PIP concentration in assay [1] (setting [3]) was 405 ng/mL; in assay [1] (setting [4]), 413 ng/mL.
For the compound `C[C@@H](N)C(=O)O` [D-alanine], the “promotion of type I collagen production compared to the negative control (Bonferroni/Dunn test)” value is on record as “promoted with statistical significance” in assay [2] (Example 5 results (1)) and “promoted with statistical significance” in assay [1] (Example 4, 0.1 μM or 150 μM). Further, the “concentration of type I atelocollagen” value in assay [2] (setting [5]) was 4.0 μg (microgram)/mL; in assay [2] (Example 5 results (2), added at 0.001 μM, negative control 1.7 μg/mL), 2.1 μg (microgram)/mL. The PIP concentration in assay [1] (Example 2, added at 0.01 μM, negative control 551 ng/mL) turned out to be 750 ng/mL; in assay [1] (Example 2, added at 0.1 μM, negative control 551 ng/mL), 789 ng/mL; in assay [1] (Example 2, added at 10 μM, negative control 551 ng/mL), 876 ng/mL; in assay [1] (Example 2, added at 1000 μM, negative control 551 ng/mL) it was 823 ng/mL; in assay [1] (Example 2, added at 17400 μM, negative control 551 ng/mL) it was 799 ng/mL; in assay [1] (setting [3]), 502 ng/mL. This compound registered a PIP concentration in assay [1] (setting [4]) of 450 ng/mL. Besides, the “effect on promoting type I collagen production compared to the negative control (Bonferroni/Dunn test)” value in assay [1] (Example 2) is reported as “statistically significant effect”.
For `N[C@H](CC(=O)O)C(=O)O` [D-aspartic acid], the “promotion of type I collagen production compared to the negative control (Bonferroni/Dunn test)” value in assay [2] (Example 5 results (1)) is “promoted with statistical significance”; in assay [1] (Example 3, 0.1 μM), “promoted with statistical significance”. Also, in assay [2] (setting [5]), the “concentration of type I atelocollagen” value is 3.8 μg (microgram)/mL. Further, the “effect on promoting type I collagen production in comparison with APM” value in assay [1] (Example 1, 0.01 μM to 100 μM similar to APM at 150 μM) is reported as “prominently more potent effect on promoting type I collagen production than APM”. Moreover, the PIP concentration in assay [1] (Example 1, added at 0.01 μM, negative control 583 ng/mL) was determined as 1286 ng/mL; in assay [1] (Example 1, added at 0.1 μM, negative control 583 ng/mL), 1159 ng/mL; in assay [1] (Example 1, added at 10 μM, negative control 583 ng/mL) it was 1117 ng/mL; in assay [1] (Example 1, added at 100 μM, negative control 583 ng/mL), 1119 ng/mL; in assay [1] (Example 1, added at 320 μM, negative control 583 ng/mL), 1007 ng/mL; in assay [1] (setting [6]) it was 456 ng/mL. For the same compound, the “effect on promoting type I collagen production compared to the negative control (Bonferroni/Dunn test)” value in assay [1] (Example 1) is listed as “statistically significant effect”.
In assay [1] (setting [6]), `N[C@@H](CC(=O)O)C(=O)O` [L-aspartic acid, reference compound] showed a PIP concentration of 406 ng/mL.
With “magnesium L-ascorbyl phosphate [APM, reference compound]”, the “concentration of type I atelocollagen” value in assay [2] (Example 5 results (1), added at 250 μM, negative control 1.8 μg/mL) was 3.9 μg (microgram)/mL; in assay [2] (Example 5 results (2), added at 250 μM, negative control 1.7 μg/mL), 2.6 μg (microgram)/mL. In addition, the PIP concentration in assay [1] (Example 1, added at 150 μM, two days culture, low-serum medium, negative control 583 ng/mL) is on record as 1183 ng/mL; in assay [1] (Example 1, added at 250 μM, negative control 583 ng/mL), 1666 ng/mL; in assay [1] (Example 1, added at 500 μM, negative control 583 ng/mL), 1416 ng/mL; in assay [1] (Example 2, added at 150 μM, negative control 551 ng/mL), 1183 ng/mL; in assay [1] (Example 2, added at 250 μM, negative control 551 ng/mL), 1666 ng/mL; in assay [1] (Example 2, added at 500 μM, negative control 551 ng/mL) it was 1416 ng/mL. Further, the “effect on promoting type I collagen production compared to the negative control (Bonferroni/Dunn test)” value in assay [1] (Example 1) and in assay [1] (Example 2) was “statistically significant effect” throughout.
